Laboratory results from US20260035479A1, “GD2 BI-SPECIFIC INVARIANT NATURAL KILLER T CELL ENGAGERS AND METHODS OF USE THEREOF” (The Children's Hospital of Philadelphia, priority 2022, published 2026).

Assays:
EL4 lymphoma cells = assay: 51Cr-release killing assay of EL4 lymphoma cells with murine hepatic lymphocytes or sorted iNKTs; assay type: cell-based; settings: for percent specific lysis relative to control: sorted murine iNKTs as effectors, p=0.014 C34 vs control; for percent specific lysis in comparison with control: unsorted hepatic lymphocytes as effectors, 100 ng/mL glycolipid antigen, p=0.0133 C34 vs nothing added
Method: FIGS. 9A-9B: iNKT-mediated cytotoxicity with glycolipid antigen (GAg) stimulation. (FIG. 9A) C57BL/6 hepatic lymphocytes (effectors) were co-cultured for 18 hours with ^51Cr-loaded EL4 lymphoma cells (targets) in triplicates at E:T ratios of 2.5:1, 5:1,10:1, 20:1, and 40:1; these cocultures were stimulated with either alpha galactosyl-ceramide (a-GalCer) or C34 at indicated concentrations or left unstimulated (Nothing added). (FIG. 9B) Similar experiments were performed with flow cytometrically sorted murine hepatic iNKTs as effector populations.
^51Cr Killing Assays. EL4 lymphoma cells were used as targets and were labeled with ^51Cr (Perkin-Elmer) at a ratio of 1 μCi per 1×10^6 cells at 37° C. for 1 hour; excess ^51Cr was removed by extensive washing in RPMI media as described previously (Orange et al., 2022). Murine hepatic iNKT-enriched cell populations and flow cytometrically sorted iNKTs were plated in 96-well round-bottom wells. 2×10^5 target cells were then mixed with these iNKTs in each well at designated effector to target ratios with 100 ng/mL of glycolipid antigen in triplicate. After 16 hours, supernatants from each well were transferred to a Deepwell Lumiplate (Perkin Elmer), dried overnight, and then analyzed by a TopCount gamma radiation detector (Perkin Elmer). Spontaneous release was determined by collecting supernatants from cultures of targets alone, while maximum lysis was measured from the supernatants of target cells that were fully lysed with detergent. Percent specific lysis was calculated by the equation: 100× (sample lysis cpm-spontaneously released cpm)/(maximum cpm-spontaneously released cpm), as described previously (Orange et al., 2022).
^51Cr-release killing assays: Percent specific lysis was calculated as described above and triplicate values were analyzed using Graphpad (Prism). Mean values and standard errors of the mean were calculated. Percent specific lysis among the three groups were compared using one-way ANOVA. Significance was set at p value of <0.05.

hepatic iNKTs = assay: Glycolipid antigen-iNKT stimulation in mice, hepatic iNKT cytokine expression by flow cytometry; assay type: in vivo, C57BL/6 mice; settings: for IFN-γ MFI relative to PBS: n=2; for iNKT expression of intracellular IL-4 vs PBS / iNKT expression of surface CD107a vs PBS / expression of IFN-γ in iNKTs: acute stimulation, 4 μg intraperitoneal; for expression of IFN-γ in iNKTs: livers harvested at hour 4, PBS control 10.1%
Method: FIG. 7: iNKT Response to Glycolipid Antigen Stimulation. Two C57BL/6 mice per group were injected with phosphate-buffered saline (PBS), alpha-galactosyl ceramide (a-GalCer), or C34 at hour 0. At hour 4, mice were euthanized, their livers were excised and hepatic lymphocytes isolated and stained for NK1.1+ TCR-β+ mononuclear single cells, and intracellular IFN-γ was assayed by flow cytometry. The IFN-γ positive gate was drawn based on unstained controls. Representative data shown are from one mouse.
FIGS. 8A-8C: Acute and Chronic cytokine expression following GAg-stimulation of iNKTs. Two C57BL/6 mice per group were injected with 4 μg of C34, alpha galactosyl-ceramide (aGC), or Phosphate-Buffered Saline (PBS), in acute or chronic stimulation groups. Hepatic lymphocytes were then isolated and stained for NK1.1, TCR-β, and interferon-gamma (IFN-γ) with intra- and extracellular staining methods. (FIG. 8A) IFN-γ mean fluorescence intensity (MFI) of iNKTs. (FIG. 8B) CD107a MFI of iNKTs. (FIG. 8C) Interleukin-4 MFI of iNKTs.
Glycolipid antigen-iNKT stimulation experiments. C57/BL6 mice were injected with free glycolipid antigen or phosphate-buffered saline (PBS) intraperitoneally at a dose of 4 μg per injection in “acute” and “chronic” exposure situations. In acute stimulation conditions, intraperitoneal injections were given at hour 0, then at hour 4 mice were sacrificed and livers harvested and processed as above. In chronic stimulation conditions, animals received the 4 μg dose of glycolipid antigen days 0, 4, and 7. Livers were then harvested 4 hours after the final intraperitoneal injection and processed as described above. Hepatic mononuclear cells were extracellularly stained with fluorophore-labeled loaded-CD1d tetramer, anti-NK1.1, anti-CD107a, and then fixed and stained intracellularly with anti-IFN-Y, anti-IL-4, anti-TCR-β using a Fixation/Permeabilization kit (BD) and analyzed on FACSVerse flow cytometer (BD).
Data Analysis. Cytokinc expression analysis: FCS files were analyzed using Flowjo (TreeStar) software. Mean fluorescence intensity (MFI) of IFN-γ CD107a, and IL-4 on iNKT cells was compared between PBS, aGC, and C34-stimulated groups using Graphpad (Prism) and compared using Student's t-test between two Groups (ex: PBS vs aGC), and one-way ANOVA for comparison of PBS, aGC, and C34.

[1] = test system: patients with advanced solid tumors; settings: Giaccone et al., 2002; cited from earlier work
iNKTs = settings: Parekh, 2005; cited from earlier work
[2] = acute stimulation protocol, p=0.012 aGC vs PBS, p=0.0034 C34 vs PBS
[3] = chronic stimulation protocol, three intraperitoneal injections over 7 days, p=0.0010 for C34

phenyl α-GalactosylCeramide [C34]
percent specific lysis relative to control (EL4 lymphoma cells): greater | percent specific lysis in comparison with control (EL4 lymphoma cells): higher | IFN-γ MFI relative to PBS (hepatic iNKTs; [2]): increased | iNKT expression of intracellular IL-4 vs PBS (hepatic iNKTs): No significant differences | iNKT expression of surface CD107a vs PBS (hepatic iNKTs): No significant differences | expression of IFN-γ in iNKTs (hepatic iNKTs): 71.4 % of iNKTs | IFN-γ MFI relative to PBS (hepatic iNKTs; [3]): greater | IFN-γ MFI, chronic vs acute group (hepatic iNKTs; chronic versus acute stimulation with the same glycolipid): not a significant difference

CCCCCCCCCCCCCCCCCCCCCCCCCC(=O)N[C@@H](CO[C@H]1O[C@H](CO)[C@H](O)[C@H](O)[C@H]1O)[C@H](O)[C@H](O)CCCCCCCCCCCCCC [aGC, α-GalactosylCeramide]
percent specific lysis relative to control (EL4 lymphoma cells): greater | percent specific lysis in comparison with control (EL4 lymphoma cells): higher | IFN-γ MFI relative to PBS (hepatic iNKTs; [2]): increased | iNKT expression of intracellular IL-4 vs PBS (hepatic iNKTs): No significant differences | iNKT expression of surface CD107a vs PBS (hepatic iNKTs): No significant differences | expression of IFN-γ in iNKTs (hepatic iNKTs): 30.4 % of iNKTs | IFN-γ MFI relative to PBS (hepatic iNKTs; [3]): no difference | disease response [1]: without disease response | dose-limiting toxicities [1]: no dose-limiting toxicities | patients with increased serum GM-CSF and TNF-α [1]: 5 of 24 | duration of iNKT anergy following stimulation (iNKTs): up to 6 months
